From patent publication US9765092B2, “Tricyclic piperidine compounds” (ACTELION PHARMACEUTICALS LTD, priority 2013, dated 2017)

Target: human TPH1 (Homo sapiens (Human), UniProt P17752)
Test: Biochemical in vitro assay using fluorescence readout (TPH1 inhibition)
[1] = human TPH1, fluorescence readout
[2] = full length human TPH1, 40 μM L-tryptophan, 15° C., 60 minutes, fluorescence at 540 nm, mean if determined several times

Chain of human TPH1 (P17752 whole entry): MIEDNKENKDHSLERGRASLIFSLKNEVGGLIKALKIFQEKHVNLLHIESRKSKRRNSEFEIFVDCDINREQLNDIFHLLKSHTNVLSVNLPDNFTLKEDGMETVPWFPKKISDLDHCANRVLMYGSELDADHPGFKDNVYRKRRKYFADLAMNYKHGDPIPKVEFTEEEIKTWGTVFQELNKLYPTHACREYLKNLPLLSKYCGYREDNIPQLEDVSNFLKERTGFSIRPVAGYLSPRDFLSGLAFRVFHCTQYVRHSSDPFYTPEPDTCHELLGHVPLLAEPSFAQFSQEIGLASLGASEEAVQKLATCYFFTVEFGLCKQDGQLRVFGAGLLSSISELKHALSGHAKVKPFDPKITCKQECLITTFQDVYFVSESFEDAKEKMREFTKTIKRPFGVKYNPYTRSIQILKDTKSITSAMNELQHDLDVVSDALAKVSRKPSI

Compound | IC50 [1] [nM] | IC50 [2] [nM]
Cc1nn2c3c(nc2s1)CCN(C(=O)COc1ccc[n+]([O-])c1Cl)C3c1ccc(C2CC2)cc1F (stereo not shown) [Example 1.6.19, 2-chloro-3-(2-(5-(4-cyclopropyl-2-fluorophenyl)-2-methyl-7,8-dihydro-[1,3,4]thiadiazolo[2′,3′:2,3]imidazo[4,5-c]pyridin-6(5H)-yl)-2-oxoethoxy)pyridine-1-oxide] | 250 | 
CCc1c(OCC(=O)N2CCc3nc4sc(C)nn4c3C2c2ccc(C3CC3)cc2F)ccc(C)[n+]1[O-] (stereo not shown) [Example 1.6.20, 3-(2-(5-(4-cyclopropyl-2-fluorophenyl)-2-methyl-7,8-dihydro-[1,3,4]thiadiazolo[2′,3′:2,3]imidazo[4,5-c]pyridin-6(5H)-yl)-2-oxoethoxy)-2-ethyl-6-methylpyridine-1-oxide] | 94 | 
COC(=O)c1ccc(OCC(=O)N2CCc3nc4sc(C)nn4c3C2c2ccc(C3CC3)cc2F)c(Cl)n1 (stereo not shown) [Example 1.6.21, Methyl 6-chloro-5-(2-(5-(4-cyclopropyl-2-fluorophenyl)-2-methyl-7,8-dihydro-[1,3,4]thiadiazolo[2′,3′:2,3]imidazo[4,5-c]pyridin-6(5H)-yl)-2-oxoethoxy)picolinate] | 8 | 
Cc1nn2c3c(nc2s1)CCN(C(=O)COc1ccc(N(C)C)nc1Cl)C3c1ccc(C2CC2)cc1F (stereo not shown) [Example 1.6.22, 2-((2-chloro-6-(dimethylamino)pyridin-3-yl)oxy)-1-(5-(4-cyclopropyl-2-fluorophenyl)-2-methyl-7,8-dihydro-[1,3,4]thiadiazolo[2′,3′:2,3]imidazo[4,5-c]pyridin-6(5H)-yl)ethanone] | 3 | 
Cc1nn2c3c(nc2s1)CCN(C(=O)COc1ccc(C#N)nc1Cl)C3c1ccc(C2CC2)cc1F (stereo not shown) [Example 1.6.23, 6-chloro-5-(2-(5-(4-cyclopropyl-2-fluorophenyl)-2-methyl-7,8-dihydro-[1,3,4]thiadiazolo[2′,3′:2,3]imidazo[4,5-c]pyridin-6(5H)-yl)-2-oxoethoxy)picolinonitrile] | 8 | 
Cc1nn2c3c(nc2s1)CCN(C(=O)COc1ccc(C(F)(F)F)nc1Cl)C3c1ccc(C2CC2)cc1F (stereo not shown) [Example 1.6.24, 2-((2-chloro-6-(trifluoromethyl)pyridin-3-yl)oxy)-1-(5-(4-cyclopropyl-2-fluorophenyl)-2-methyl-7,8-dihydro-[1,3,4]thiadiazolo[2′,3′:2,3]imidazo[4,5-c]pyridin-6(5H)-yl)ethanone] | 7 | 
Cc1nn2c3c(nc2s1)CCN(C(=O)COc1ccc(C(=O)N(C)C)nc1Cl)C3c1ccc(C2CC2)cc1F (stereo not shown) [Example 1.6.25, 6-chloro-5-(2-(5-(4-cyclopropyl-2-fluorophenyl)-2-methyl-7,8-dihydro-[1,3,4]thiadiazolo[2′,3′:2,3]imidazo[4,5-c]pyridin-6(5H)-yl)-2-oxoethoxy)-N,N-dimethylpicolinamide] | 4 | 
Cc1nn2c3c(nc2s1)CCN(C(=O)COc1ccc(NS(C)(=O)=O)nc1Cl)C3c1ccc(C2CC2)cc1F (stereo not shown) [Example 1.6.26, N-(6-chloro-5-(2-(5-(4-cyclopropyl-2-fluorophenyl)-2-methyl-7,8-dihydro-[1,3,4]thiadiazolo[2′,3′:2,3]imidazo[4,5-c]pyridin-6(5H)-yl)-2-oxoethoxy)pyridin-2-yl)methanesulfonamide] | 12 | 
Cc1ncc(OCC(=O)N2CCc3nc4sc(C)nn4c3C2c2ccc(C3CC3)cc2F)c(C)n1 (stereo not shown) [Example 1.6.27, 1-(5-(4-cyclopropyl-2-fluorophenyl)-2-methyl-7,8-dihydro-[1,3,4]thiadiazolo[2′,3′:2,3]imidazo[4,5-c]pyridin-6(5H)-yl)-2-((2,4-dimethylpyrimidin-5-yl)oxy)ethanone] | 161 | 
Cc1nn2c3c(nc2s1)CCN(C(=O)COc1ccc(C(=O)N(C)C2CC2)nc1Cl)C3c1ccc(C2CC2)cc1F (stereo not shown) [Example 1.6.28, 6-chloro-N-cyclopropyl-5-(2-(5-(4-cyclopropyl-2-fluoro-phenyl)-2-methyl-7,8-dihydro-[1,3,4]thiadiazolo-[2′,3′:2,3]imidazo[4,5-c]pyridin-6(5H)-yl)-2-oxoethoxy)-N-methylpicolinamide] | 18 | 
Cc1nn2c3c(nc2s1)CCN(C(=O)COc1ccc(-c2ncco2)nc1Cl)C3c1ccc(C2CC2)cc1F (stereo not shown) [Example 1.6.29, 2-((2-chloro-6-(oxazol-2-yl)pyridin-3-yl)oxy)-1-(5-(4-cyclopropyl-2-fluorophenyl)-2-methyl-7,8-dihydro-[1,3,4]thiadiazolo[2′,3′:2,3]imidazo[4,5-c]pyridin-6(5H)-yl)ethanone] | 17 | 
CCc1ncccc1OCC(=O)N1CCc2nc3sc(C)nn3c2C1c1cnc(N2CCOCC2)s1 (stereo not shown) [Example 1.7.1, 2-((2-ethylpyridin-3-yl)oxy)-1-(2-methyl-5-(2-morpholinothiazol-5-yl)-7,8-dihydro-[1,3,4]thiadiazolo[2′,3′:2,3]imidazo[4,5-c]pyridin-6(5H)-yl)ethanone] | 337 | 
Cc1nn2c3c(nc2s1)CCN(C(=O)COc1ccc(N2CCOCC2)nc1Cl)C3c1cnc(N2CCOCC2)s1 (stereo not shown) [Example 1.7.2, 2-((2-chloro-6-morpholinopyridin-3-yl)oxy)-1-(2-methyl-5-(2-morpholinothiazol-5-yl)-7,8-dihydro-[1,3,4]thiadiazolo [2′,3′:2,3]imidazo[4,5-c]pyridin-6(5H)-yl)ethanone] | 32 | 
Cc1nn2c3c(nc2s1)CCN(C(=O)COc1cccnc1Cl)C3c1cnc(N2CCOCC2)s1 (stereo not shown) [Example 1.7.3, 2-((2-chloropyridin-3-yl)oxy)-1-(2-methyl-5-(2-morpholinothiazol-5-yl)-7,8-dihydro-[1,3,4]thiadiazolo [2′,3′:2,3]imidazo[4,5-c]pyridin-6(5H)-yl)ethanone] | 338 | 
Cc1nn2c3c(nc2s1)CCN(C(=O)COc1ccc(N(C)C)nc1Cl)C3c1cnc(N2CCOCC2)s1 (stereo not shown) [Example 1.7.4, 2-((2-chloro-6-(dimethylamino)pyridin-3-yl)oxy)-1-(2-methyl-5-(2-morpholinothiazol-5-yl)-7,8-dihydro-[1,3,4]thiadiazolo[2′,3′:2,3]imidazo[4,5-c]pyridin-6(5H)-yl)ethanone] | 408 | 
Cc1nn2c3c(nc2s1)CCN(C(=O)COc1ccc(N2CCOCC2)nc1Cl)C3c1cc(CN(C)C)cs1 (stereo not shown) [Example 1.8.1, 2-((2-chloro-6-morpholinopyridin-3-yl)oxy)-1-(5-(4-((dimethylamino)methyl)thiophen-2-yl)-2-methyl-7,8-dihydro-[1,3,4]thiadiazolo[2′,3′:2,3]imidazo[4,5-c]pyridin-6(5H)-yl)ethanone] | 18 | 
CCc1ncccc1OCC(=O)N1CCc2nc3sc(C)nn3c2C1c1cc(CN(C)C)cs1 (stereo not shown) [Example 1.8.2, 1-(5-(4-((dimethylamino)methyl)thiophen-2-yl)-2-methyl-7,8-dihydro-[1,3,4]thiadiazolo[2′,3′:2,3]imidazo[4,5-c]pyridin-6(5H)-yl)-2-((2-ethylpyridin-3-yl)oxy)ethanone] | 140 | 
Cc1nn2c3c(nc2s1)CCN(C(=O)COc1ccc(Cl)cc1C)C3c1cc(CN(C)C)cs1 (stereo not shown) [Example 1.8.3, 2-(4-chloro-2-methylphenoxy)-1-(5-(4-((dimethylamino)methyl)thiophen-2-yl)-2-methyl-7,8-dihydro-[1,3,4]thiadiazolo [2′,3′:2,3]imidazo[4,5-c]pyridin-6(5H)-yl)ethanone] | 95 | 
Cc1nn2c3c(nc2s1)CCN(C(=O)COc1ccc(N(C)C)nc1Cl)C3c1cc(CN(C)C)cs1 (stereo not shown) [Example 1.8.4, 2-((2-chloro-6-(dimethylamino)pyridin-3-yl)oxy)-1-(5-(4-((dimethylamino)methyl)thiophen-2-yl)-2-methyl-7,8-dihydro-[1,3,4]thiadiazolo[2′,3′:2,3]imidazo[4,5-c]pyridin-6(5H)-yl)ethanone] | 106 | 
Cc1nn2c3c(nc2s1)CCN(C(=O)COc1ccc(N(C)CC(F)(F)F)nc1Cl)C3c1cc(CN(C)C)cs1 (stereo not shown) [Example 1.8.5, 2-((2-chloro-6-(methyl(2,2,2-trifluoroethyl)amino)pyridine-3-yl)oxy)-1-(5-(4-((dimethylamino)methyl)thiophen-2-yl)-2-methyl-7,8-dihydro-[1,3,4]thiadiazolo[2′,3′:2,3]imidazo[4,5-c]pyridin-6(5H)-yl)ethanone] | 25 | 
Cc1nn2c3c(nc2s1)CCN(C(=O)COc1ccc(N2CCOCC2)nc1Cl)C3c1cc(C(=O)N(C)C)cs1 (stereo not shown) [Example 1.9.1, 5-(6-(2-((2-chloro-6-morpholinopyridin-3-yl)oxy)acetyl)-2-methyl-5,6,7,8-tetrahydro-[1,3,4]thiadiazolo[2′,3′:2,3]imidazo[4,5-c]pyridin-5-yl)-N,N-dimethyl-thiophene-3-carboxamide] |  | 5
Cc1nn2c3c(nc2s1)CCN(C(=O)COc1ccc(N2CC(F)(F)C2)nc1Cl)C3c1cc(C(=O)N(C)C)cs1 (stereo not shown) [Example 1.9.2, 5-(6-(2-((2-Chloro-6-(3,3-difluoroazetidin-1-yl)pyridin-3-yl)oxy)acetyl)-2-methyl-5,6,7,8-tetrahydro-[1,3,4]thiadiazolo[2′,3′:2,3]imidazo[4,5-c]pyridin-5-yl)-N,N-dimethylthiophene-3-carboxamide] |  | 32
Cc1nn2c3c(nc2s1)CCN(C(=O)COc1ccc(C(F)(F)F)cc1Cl)C3c1cc(C(=O)N(C)C)cs1 (stereo not shown) [Example 1.9.3, 5-(6-(2-(2-Chloro-4-(trifluoromethyl)phenoxy)acetyl)-2-methyl-5,6,7,8-tetrahydro-[1,3,4]thiadiazolo[2′,3′:2,3]imidazo[4,5-c]pyridin-5-yl)-N,N-dimethylthiophene-3-carboxamide] |  | 77
Cc1nn2c3c(nc2s1)CCN(C(=O)COc1ccc(NS(C)(=O)=O)nc1Cl)C3c1cc(C(=O)N(C)C)cs1 (stereo not shown) [Example 1.9.4, 5-(6-(2-((2-Chloro-6-(methylsulfonamido)pyridin-3-yl)oxy)acetyl)-2-methyl-5,6,7,8-tetra-hydro-[1,3,4]thiadiazolo[2′,3′:2,3]imidazo[4,5-c]pyridin-5-yl)-N,N-dimethylthiophene-3-carboxamide] |  | 32
Cc1nn2c3c(nc2s1)CCN(C(=O)COc1ccc(C(=O)N(C)C)nc1Cl)C3c1cc(C(=O)N(C)C)cs1 (stereo not shown) [Example 1.9.5, 6-Chloro-5-(2-(5-(4-(dimethylcarbamoyl)thiophen-2-yl)-2-methyl-7,8-dihydro-[1,3,4]-thiadiazolo[2′,3′:2,3]imidazo[4,5-c]pyridin-6(5H)-yl)-2-oxoethoxy)-N,N-dimethyl-picolinamide] |  | 22
